# Results: publication PMC10580313, “A Chemoproteomic Approach to Elucidate the Mechanism of Action of 6-Azasteroids with Unique Activity in Mycobacteria” (ACS Infectious Diseases, 2023)
# Experiments:
# Mtb = assay: MIC of 6-azasteroid alone, Mtb; type: cell-based, Mycobacterium tuberculosis; settings: (MIC99 reported as micromolar)
# HepG2 cells = assay: Cytotoxicity assay (Alamar Blue), HepG2; type: cell-based, human; settings: 72 h, read-out: Mammalian Cell IC50, HepG2
# THP-1 cells = assay: Cytotoxicity assay (Alamar Blue), THP-1; type: cell-based; settings: 72 h, read-out: Mammalian Cell IC50, THP1
# Mm (BAA-535) = assay: BDQ potentiation MIC99 microbroth assay, Mm; type: cell-based, Mycobacterium marinum; settings: for Fold ∆ of BDQ MIC, Mm: 6-azasteroid fixed at 20 μM, relative to BDQ MIC99 without azasteroid
# Mtb (CDC1551) = assay: BDQ potentiation MIC99 microbroth assay, Mtb; type: cell-based, Mycobacterium tuberculosis; settings: 6-azasteroid fixed at 20 μM; relative to BDQ MIC99 without azasteroid
SMILES,Mtb MIC Alone (Mtb) [µM],IC50 (HepG2 cells) [µM],IC50 (THP-1 cells) [µM],"Fold ∆ of BDQ MIC, Mm (Mm (BAA-535)) [fold]","Fold ∆ of BDQ MIC, Mtb (Mtb (CDC1551))","MIC (Mm (BAA-535); Mycobacterium marinum, BAA535, read-out: Mm bedaquiline minimal inhibitory concentration, alone) [µM]",BDQ potentiation activity in Mm (Mm (BAA-535); photoaffinity probes)
C[C@]12CCC(=O)CC1NCC1C2CC[C@]2(C)C(C(=O)NC(c3ccc(F)cc3)c3ccc(C(F)(F)F)cc3)CCC12 (stereo partly drawn) [compound 17],20,10.1,15.6,–,–,–,–
C[C@]12CCC(=O)CC1NCC1C2CC[C@]2(C)C(C(=O)NC(c3ccc(C(F)(F)F)cc3)c3ccc(C(F)(F)F)cc3)CCC12 (stereo partly drawn) [compound 26],7.5,6,–,–,–,–,–
C[C@]12CCC(=O)CC1NCC1C2CC[C@]2(C)C(C(=O)NC34CC5CC(CC(C5)C3)C4)CCC12 (stereo partly drawn) [compound 11],> 80,89.3,–,6,–,–,–
C[C@]12CCC(=O)CC1NCC1C2CC[C@]2(C)C(C(=O)Nc3cc(Br)ccc3Br)CCC12 (stereo partly drawn) [compound 10],30,7.6,–,–,–,–,–
C[C@]12CCC3C(CNC4=CC(=O)CC[C@@]43C)C1CCC2C(=O)NC(c1ccc(C(F)(F)F)cc1)c1ccc(C(F)(F)F)cc1 (stereo partly drawn) [compound 25],20,75.7,–,–,8 fold,–,–
CCCN1CC2C3CCC(C(=O)NC(c4ccc(C(F)(F)F)cc4)c4ccc(C(F)(F)F)cc4)[C@@]3(C)CCC2[C@@]2(C)CCC(=O)CC12 (stereo partly drawn) [compound 27],20,–,> 100,–,2 fold,–,–
CCCN1CC2C3CCC(C(=O)NC(c4ccc(OC(F)F)cc4)c4ccc(OC(F)F)cc4)[C@@]3(C)CCC2[C@@]2(C)CCC(=O)CC12 (stereo partly drawn) [compound 24],60,–,> 100,25.5,–,–,–
C[C@]12CCC(=O)CC1NCC1C2CC[C@]2(C)C(C(=O)NC(c3ccc(OC(F)(F)F)cc3)c3ccc(OC(F)(F)F)cc3)CCC12 (stereo partly drawn) [compound 29],5,–,4.5,–,–,–,–
CCCN1CC2C3CCC(C(=O)NC(c4ccc(F)cc4)c4ccc(F)cc4)[C@@]3(C)CCC2[C@@]2(C)CCC(=O)C=C12 (stereo partly drawn) [compound 13],> 20,> 100,–,–,128 fold,–,–
C[C@]12CCC(=O)CC1NCC1C2CC[C@]2(C)C(C(=O)NC(c3ccc(F)cc3)c3ccc(F)cc3)CCC12 (stereo partly drawn) [compound 14],80,14.2,–,–,–,–,–
C[C@]12CCC3C(CNC4=CC(=O)CC[C@@]43C)C1CCC2C(=O)NC(c1ccc(OC(F)F)cc1)c1ccc(OC(F)F)cc1 (stereo partly drawn) [compound 22],> 20,–,25.7,–,> 32 fold,–,–
C[C@]12CCC(O)CC1NCC1C2CC[C@]2(C)C(C(=O)NC(c3ccc(OC(F)(F)F)cc3)c3ccc(OC(F)(F)F)cc3)CCC12 (stereo partly drawn) [compound 32],5,5.75,–,–,–,–,–
CC(C)(C)c1ccc(C(C)(C)C)c(NC(=O)C2CCC3C4CNC5CC(=O)CC[C@]5(C)C4CC[C@]23C)c1 (stereo partly drawn) [compound 3],10,16.9,14.2,–,–,–,–
CC(C)(C)c1ccc(C(C)(C)C)c(NC(=O)C2CCC3C4CNC5=CC(=O)CC[C@]5(C)C4CC[C@]23C)c1 (stereo partly drawn) [compound 1],40,–,17.7,–,16 fold,–,–
"COc1nc2ccc(Br)cc2cc1[C@@H](c1ccccc1)[C@@](O)(CCN(C)C)c1cccc2ccccc12 [bedaquiline, reference compound]",–,–,–,–,–,0.085,–
CC(C)(C)c1ccc(C(F)(F)F)cc1NC(=O)C1CCC2C3CNC4CC(=O)CC[C@]4(C)C3CC[C@]12C (stereo partly drawn) [compound 7],30,12.1,–,–,–,–,–

SMILES,Mtb MIC Alone (Mtb) [µM],IC50 (HepG2 cells) [µM],IC50 (THP-1 cells) [µM],"Fold ∆ of BDQ MIC, Mm (Mm (BAA-535)) [fold]","Fold ∆ of BDQ MIC, Mtb (Mtb (CDC1551))","MIC (Mm (BAA-535); Mycobacterium marinum, BAA535, read-out: Mm bedaquiline minimal inhibitory concentration, alone) [µM]",BDQ potentiation activity in Mm (Mm (BAA-535); photoaffinity probes)
C[C@]12CCC(N)CC1NCC1C2CC[C@]2(C)C(C(=O)NC(c3ccc(OC(F)(F)F)cc3)c3ccc(OC(F)(F)F)cc3)CCC12 (stereo partly drawn) [compound 30],80,2.7,–,–,–,–,–
CC(C)(C)c1ccc(C(F)(F)F)cc1NC(=O)C1CCC2C3CNC4=CC(=O)CC[C@]4(C)C3CC[C@]12C (stereo partly drawn) [compound 5],> 20,60,–,–,2 fold,–,–
C[C@]12CCC3C(CN(CC4CC4)C4CC(=O)CC[C@]34C)C1CCC2C(=O)NC(c1ccc(OC(F)(F)F)cc1)c1ccc(OC(F)(F)F)cc1 (stereo partly drawn) [compound 38],80,–,10,–,–,–,–
C[C@]12CCC3C(CNC4=CC(=O)CC[C@@]43C)C1CCC2C(=O)NC(c1ccncc1)c1ccc(F)cc1 (stereo partly drawn) [compound 18],15,> 100,–,–,4 fold,–,–
C[C@]12CCC3C(CNC4=CC(=O)CC[C@@]43C)C1CCC2C(=O)NC(c1ccc(OC(F)(F)F)cc1)c1ccc(OC(F)(F)F)cc1 (stereo partly drawn) [compound 28],> 20,–,12.8,–,> 32 fold,–,–
C[C@]12CCC(=O)CC1NCC1C2CC[C@]2(C)C(C(=O)NC(c3ccc(OC(F)F)cc3)c3ccc(OC(F)F)cc3)CCC12 (stereo partly drawn) [compound 23],15,–,3.3,–,–,–,–
C[C@]12CCC(O)CC1NCC1C2CC[C@]2(C)C(C(=O)NC(c3ccc(F)cc3)c3ccc(OC(F)(F)F)cc3)CCC12 (stereo partly drawn) [compound 21],> 20,–,–,–,> 32 fold,–,–
CN(C)CCN1CC2C3CCC(C(=O)NC(c4ccc(OC(F)(F)F)cc4)c4ccc(OC(F)(F)F)cc4)[C@@]3(C)CCC2[C@@]2(C)CCC(=O)CC12 (stereo partly drawn) [compound 37],5,–,4.1,–,–,–,–
CCCN1CC2C3CCC(C(=O)Nc4cc(C(C)(C)C)ccc4C(C)(C)C)[C@@]3(C)CCC2[C@@]2(C)CCC(=O)CC12 (stereo partly drawn) [compound 4],20,–,73,–,–,–,–
C[C@]12CCC3C(CNC4=CC(=O)CC[C@@]43C)C1CCC2C(=O)NC(c1ccc(F)cc1)c1ccc(OC(F)(F)F)cc1 (stereo partly drawn) [compound 19],> 20,58.4,–,–,32-64 fold,–,–
C[C@]12CCC3C(CNC4=CC(=O)CC[C@@]43C)C1CCC2C(=O)NC(c1ccc(F)cc1)c1ccc(C(F)(F)F)cc1 (stereo partly drawn) [compound 15],> 20,26,–,–,64 fold,–,–
C[C@]12CCC(=O)CC1NCC1C2CC[C@]2(C)C(C(=O)NC(c3ccc(F)cc3)c3ccc(OC(F)(F)F)cc3)CCC12 (stereo partly drawn) [compound 20],> 20,5.7,–,–,> 32 fold,–,–
CC12CCC(=O)C=C1CCC1C2CCC2(C)C(C(=O)NC(c3ccc(OC(F)(F)F)cc3)c3ccc(OC(F)(F)F)cc3)CCC12 (stereo not drawn) [compound 33],> 80,> 100,–,–,1 fold,–,–
"C#CCCC(=O)Nc1ccc(C(=O)c2ccc(NC(=O)C3CCC4C5CNC6=CC(=O)CC[C@]6(C)C5CC[C@]34C)cc2)cc1 (stereo partly drawn) [compound 44, 17β-[N-[4-(4-Aminobenzoyl)phenyl]pent-4-ynamide]-6-azaandrost-4-en-3-one]",–,–,–,–,–,–,showed BDQ potentiation activity
CC(=O)N1CC2C3CCC(C(=O)NC(c4ccc(OC(F)(F)F)cc4)c4ccc(OC(F)(F)F)cc4)[C@@]3(C)CCC2[C@@]2(C)CCC(=O)CC12 (stereo partly drawn) [compound 31],> 80,> 100,–,3.5,1 fold,–,–
CC12CCC(=O)CC1CCC1C2CCC2(C)C(C(=O)NC(c3ccc(OC(F)(F)F)cc3)c3ccc(OC(F)(F)F)cc3)CCC12 (stereo not drawn) [compound 34],> 80,> 100,–,–,1 fold,–,–
